pEC50: −log10 of the molar value.
Biological target: T1, human GPR119 (Homo sapiens, UniProt Q8TDV5)
T1 construct: expressed in transfected cells; host or cells: HEK293
T1 sequence (Q8TDV5 1-335): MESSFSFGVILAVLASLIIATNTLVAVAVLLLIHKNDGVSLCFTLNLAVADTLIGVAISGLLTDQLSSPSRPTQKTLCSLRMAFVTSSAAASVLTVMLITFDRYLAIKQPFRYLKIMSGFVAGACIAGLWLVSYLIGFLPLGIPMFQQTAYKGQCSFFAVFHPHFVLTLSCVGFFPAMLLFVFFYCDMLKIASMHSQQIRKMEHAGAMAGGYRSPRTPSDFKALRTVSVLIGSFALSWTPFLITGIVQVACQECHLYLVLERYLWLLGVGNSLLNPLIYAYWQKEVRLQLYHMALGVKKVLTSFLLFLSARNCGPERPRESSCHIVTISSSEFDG
Assay: Measurement of GPR119 signaling using LANCE 384-well cAMP kit (LCMP assay)
Assay type: cell-based
Conditions: HEK293 cells stably transfected with human GPR119
Protocol: Measurement of GPR119 Signaling Using LANCE 384-Well cAMP Kit (LCMP Assay)
Human embryonic kidney (HEK) 293 cell lines stably transfected with human GPR119 were maintained in DMEM media containing FBS, penicillin-streptomycin, HEPES, and hygromycin. For the cAMP assay, the transfected cells were harvested using a non-enzymatic cell dissociation solution (GIBCO 2672), pelleted and resuspended in stimulation buffer (DMEM, 25 mM Hepes, 0.1% BSA, pH 7.4 in the presence of 100 μM phosphodiesterase inhibitors). The adenylate cyclase assay was constructed following the LANCE™ cAMP Kit (Perkin Elmer, AD0264) instructions. Briefly, cells with Alexa Fluor® 647-anti cAMP antibody were incubated with 10 point series diluted test article in stimulation buffer with a final concentration of 2.5% DMSO for 45 minutes. The reaction was stopped by incubating with the supplied detection buffer containing the europium chelate of the Eu-SA/Biotin-cAMP tracer for 3 hours. The assay was performed in duplicate in a 384 well plate for duplicate plates. Fluorescence at 665 nm was measured using a PHERAstar instrument. Basal activity was determined using a DMSO control and maximum response was defined as cAMP stimulation produced by an internal agonist control. Standard cAMP concentrations were assayed concurrently for conversion of fluorescence signal to cAMP level. The data was analyzed using 4-parameter curve fit in Microsoft Excel.

| Structure (SMILES) | pEC50 |
| --- | --- |
| CCc1cnc(N2CCC([C@@H]3C[C@H]3CCOc3ccc(CC(=O)N(C)C)c(F)c3)CC2)nc1 [Example 46, 2-(4-(2-((1S,2S)-2-(1-(5-ethylpyrimidin-2-yl)piperidin-4-yl)cyclopropyl)ethoxy)-2-fluorophenyl)-N,N-dimethylacetamide] | 8.36 |
| CCc1cnc(N2CCC([C@H]3C[C@@H]3CCOc3ccc(CC(=O)N(C)C)c(F)c3)CC2)nc1 [Example 47, 2-(4-(2-((1R,2R)-2-(1-(5-ethylpyrimidin-2-yl)piperidin-4-yl)cyclopropyl)ethoxy)-2-fluorophenyl)-N,N-dimethylacetamide] | 8.54 |
| COCc1cnc(N2CCC([C@@H]3C[C@H]3CCOc3ccc(CC(=O)N4CCC4)c(F)c3)CC2)nc1 [Example 48, 1-(azetidin-1-yl)-2-(2-fluoro-4-(2-((1S,2S)-2-(1-(5-(methoxymethyl)pyrimidin-2-yl)piperidin-4-yl)cyclopropyl)ethoxy)phenyl)ethanone] | 8.07 |
| COCc1cnc(N2CCC([C@H]3C[C@@H]3CCOc3ccc(CC(=O)N4CCC4)c(F)c3)CC2)nc1 [Example 51, 1-(azetidin-1-yl)-2-(2-fluoro-4-(2-((1R,2R)-2-(1-(5-(methoxymethyl)pyrimidin-2-yl)piperidin-4-yl)cyclopropyl)ethoxy)phenyl)ethanone] | 8.47 |
| COCc1cnc(N2CCC([C@@H]3C[C@H]3CCOc3ccc(CC(=O)N(C)C)c(F)c3)CC2)nc1 [Example 52, 2-(2-fluoro-4-(2-((1S,2S)-2-(1-(5-(methoxymethyl)pyrimidin-2-yl)piperidin-4-yl)cyclopropyl)ethoxy)phenyl)-N,N-dimethylacetamide] | 8.02 |
| COCc1cnc(N2CCC([C@H]3C[C@@H]3CCOc3ccc(CC(=O)N(C)C)c(F)c3)CC2)nc1 [Example 53, 2-(2-fluoro-4-(2-((1R,2R)-2-(1-(5-(methoxymethyl)pyrimidin-2-yl)piperidin-4-yl)cyclopropyl)ethoxy)phenyl)-N,N-dimethylacetamide] | 8.23 |
| Fc1cc(-n2cnnn2)ccc1OCC[C@H]1C[C@@H]1C1CCN(c2ncc(Cl)cn2)CC1 [Example 58, 5-chloro-2-(4-((1R,2R)-2-(2-(2-fluoro-4-(1H-tetrazol-1-yl)phenoxy)ethyl)cyclopropyl)piperidin-1-yl)pyrimidine] | 7.96 |
| Fc1cc(OCC[C@@H]2C[C@H]2C2CCN(c3ncc(Cl)cn3)CC2)ccc1-n1cnnn1 [Example 59, 5-chloro-2-(4-((1S,2S)-2-(2-(3-fluoro-4-(1H-tetrazol-1-yl)phenoxy)ethyl)cyclopropyl)piperidin-1-yl)pyrimidine] | 7.89 |
| CCc1cnc(N2CCC([C@H]3C[C@@H]3CCOc3ccc(-n4cnnn4)cc3F)CC2)nc1 [Example 60, 5-ethyl-2-(4-((1R,2R)-2-(2-(2-fluoro-4-(1H-tetrazol-1-yl)phenoxy)ethyl)cyclopropyl)piperidin-1-yl)pyrimidine] | 7.77 |
| O=C1NCCN1c1ccc(OCC[C@H]2C[C@@H]2C2CCN(c3ncc(Cl)cn3)CC2)cc1F [Example 61, 1-(4-(2-((1R,2R)-2-(1-(5-chloropyrimidin-2-yl)piperidin-4-yl)cyclopropyl)ethoxy)-2-fluorophenyl)imidazolidin-2-one] | 7.77 |
| CCc1cnc(N2CCC([C@@H]3C[C@H]3CCOc3ccc(CC(=O)N4CCC4)cc3F)CC2)nc1 [Example 62, 1-(azetidin-1-yl)-2-(4-(2-((1S,2S)-2-(1-(5-ethylpyrimidin-2-yl)piperidin-4-yl)cyclopropyl)ethoxy)-3-fluorophenyl)ethanone] | 7.96 |
| COCc1cnc(N2CCC([C@H]3C[C@@H]3CCOc3ccc(CC(=O)N4CCC4)cc3F)CC2)nc1 [Example 63, 1-(azetidin-1-yl)-2-(3-fluoro-4-(2-((1R,2R)-2-(1-(5-(methoxymethyl)pyrimidin-2-yl)piperidin-4-yl)cyclopropyl)ethoxy)phenyl)ethanone] | 7.82 |
| CC(C)c1noc(N2CCC([C@@H]3C[C@H]3CCOc3ccc(S(C)(=O)=O)c(F)c3)CC2)n1 [Example 65, 5-(4-((1S,2S)-2-(2-(3-fluoro-4-(methylsulfonyl)phenoxy)ethyl)cyclopropyl)piperidin-1-yl)-3-isopropyl-1,2,4-oxadiazole] | 8.11 |
| CC(C)c1noc(N2CCC([C@@H]3C[C@H]3CCOc3ccc(S(C)(=O)=O)cc3F)CC2)n1 [Example 66, 5-(4-((1S,2S)-2-(2-(2-fluoro-4-(methylsulfonyl)phenoxy)ethyl)cyclopropyl)piperidin-1-yl)-3-isopropyl-1,2,4-oxadiazole] | 8.46 |
| CC(C)c1noc(N2CCC([C@@H]3C[C@H]3CCOc3ccc(-n4cnnn4)cc3F)CC2)n1 [Example 67, 5-(4-((1S,2S)-2-(2-(2-fluoro-4-(1H-tetrazol-1-yl)phenoxy)ethyl)cyclopropyl)piperidin-1-yl)-3-isopropyl-1,2,4-oxadiazole] | 8.21 |
| CC(C)c1noc(N2CCC([C@H]3C[C@@H]3CCOc3ccc(-n4cnnn4)cc3F)CC2)n1 [Example 68, 5-(4-((1R,2R)-2-(2-(2-fluoro-4-(1H-tetrazol-1-yl)phenoxy)ethyl)cyclopropyl)piperidin-1-yl)-3-isopropyl-1,2,4-oxadiazole] | 8.46 |
| CC(C)c1noc(N2CCC([C@@H]3C[C@H]3CCOc3ccc(CC(=O)N4CCC4)cc3F)CC2)n1 [Example 70, 1-(azetidin-1-yl)-2-(3-fluoro-4-(2-((1S,2S)-2-(1-(3-isopropyl-1,2,4-oxadiazol-5-yl)piperidin-4-yl)cyclopropyl)ethoxy)phenyl)ethanone] | 8.17 |
| CCS(=O)(=O)c1ccc(OCC[C@@H]2C[C@H]2C2CCN(c3nc(C(C)C)no3)CC2)c(F)c1 [Example 71, 5-(4-((1S,2S)-2-(2-(4-(ethylsulfonyl)-2-fluorophenoxy)ethyl)cyclopropyl)piperidin-1-yl)-3-isopropyl-1,2,4-oxadiazole] | 8.42 |

The next compounds have a higher pEC50 than those just listed; values first:

| pEC50 | Structure (SMILES) |
| --- | --- |
| 9.10 | CCc1cnc(N2CCC([C@H]3C[C@@H]3CCOc3ccc(CC(=O)N4CCC4)c(F)c3)CC2)nc1 [Example 45, 1-(azetidin-1-yl)-2-(4-(2-((1R,2R)-2-(1-(5-ethylpyrimidin-2-yl)piperidin-4-yl)cyclopropyl)ethoxy)-2-fluorophenyl)ethanone] |
| 9.15 | CCc1cnc(N2CCC([C@@H]3C[C@H]3CCOc3cc(F)c(CC(=O)N(C)C)c(F)c3)CC2)nc1 [Example 49, 2-(4-(2-((1S,2S)-2-(1-(5-ethylpyrimidin-2-yl)piperidin-4-yl)cyclopropyl)ethoxy)-2,6-difluorophenyl)-N,N-dimethylacetamide] |
| 9.46 | CCc1cnc(N2CCC([C@@H]3C[C@H]3CCOc3cc(F)c(CC(=O)N4CCC4)c(F)c3)CC2)nc1 [Example 50, 1-(azetidin-1-yl)-2-(4-(2-((1S,2S)-2-(1-(5-ethylpyrimidin-2-yl)piperidin-4-yl)cyclopropyl)ethoxy)-2,6-difluorophenyl)ethanone] |
| 9.60 | CCc1cnc(N2CCC([C@H]3C[C@@H]3CCOc3cc(F)c(CC(=O)N4CCC4)c(F)c3)CC2)nc1 [Example 54, 1-(azetidin-1-yl)-2-(4-(2-((1R,2R)-2-(1-(5-ethylpyrimidin-2-yl)piperidin-4-yl)cyclopropyl)ethoxy)-2,6-difluorophenyl)ethanone] |
| 9.47 | CCc1cnc(N2CCC([C@H]3C[C@@H]3CCOc3cc(F)c(CC(=O)N(C)C)c(F)c3)CC2)nc1 [Example 55, 2-(4-(2-((1R,2R)-2-(1-(5-ethylpyrimidin-2-yl)piperidin-4-yl)cyclopropyl)ethoxy)-2,6-difluorophenyl)-N,N-dimethylacetamide] |
| 9.40 | COCc1cnc(N2CCC([C@H]3C[C@@H]3CCOc3cc(F)c(CC(=O)N4CCC4)c(F)c3)CC2)nc1 [Example 56, 1-(azetidin-1-yl)-2-(2,6-difluoro-4-(2-((1R,2R)-2-(1-(5-(methoxymethyl)pyrimidin-2-yl)piperidin-4-yl)cyclopropyl)ethoxy)phenyl)ethanone] |
| 9.20 | COCc1cnc(N2CCC([C@H]3C[C@@H]3CCOc3cc(F)c(CC(=O)N(C)C)c(F)c3)CC2)nc1 [Example 57, 2-(2,6-difluoro-4-(2-((1R,2R)-2-(1-(5-(methoxymethyl)pyrimidin-2-yl)piperidin-4-yl)cyclopropyl)ethoxy)phenyl)-N,N-dimethylacetamide] |
| 8.66 | CC(C)c1noc(N2CCC([C@@H]3C[C@H]3CCOc3ccc(CC(=O)N4CCC4)c(F)c3)CC2)n1 [Example 69, 1-(azetidin-1-yl)-2-(2-fluoro-4-(2-((1S,2S)-2-(1-(3-isopropyl-1,2,4-oxadiazol-5-yl)piperidin-4-yl)cyclopropyl)ethoxy)phenyl)ethanone] |

Source: patent US20150274664A1 (MERCK SHARP & DOHME CORP., priority 2012, published 2015)
